Laboratory results: patent US20250034182A1, “PHOSPHOLIPID COMPOUNDS AND METHODS OF MAKING AND USING THE SAME” (priority 2021, published 2025)

Assays:
Format in all cases: cell-based
[1] = tested on: Human Rhinovirus 16 (HRV16) in H1-HeLa cells; experiment: H1-HeLa HRV-CTG EC50, HRV16 (Example Z); conditions: Rhinovirus A, HRV16, 96 h, MOI 0.25, 4 days, Celltiter-Glo, read-out: HRV 16 HELA EC50 (nM) (per Ex. Z)
Description: (§1) H1-Hela cell line (ATCC, Manassas, VA, Cat #CRL-1958) was maintained in Dulbecco's […] (DMEM) (Corning, New York, NY, Cat #15-018CM) supplemented with 10% fetal bovine serum (FBS) (Hyclone, Logan, UT, Cat #SH30071-03), and 1× Penicillin-Streptomycin-L-Glutamine (Coming, New York, NY, Cat #30-009-C1). Cells were passaged 2 times per week to maintain sub-confluent densities and were used for experiments at passage 5-30. The Human Rhinovirus 1B (HRV1B) (ATCC, Manassas, VA, Cat #VR-1645), Human Rhinovirus 14 (HRV14) (ATCC, Manassas, VA, Cat #VR-284), and Human Rhinovirus 16 (HRV16) (ATCC, Manassas, VA, Cat #BR-283) was obtained through ATCC. Viral infection was monitored by determining viability of H1-HeLa cells as described below.
(§2) Test molecules are prepared in 100% DMSO in 384-well polypropylene plates (Greiner, Monroe, NC, Cat #784201) with 8 compounds per plate in grouped replicates of 4 at 10 serially diluted concentrations (1:3). The serially diluted compounds were transferred to low dead volume Echo plates (Labcyte, Sunnyvale, CA, Cat #LP-0200).
(§3) The test compounds were spotted to 384-well assay plates (Greiner, Monroe, NC, Cat #781091) at 200 nL per well using an Echo acoustic dispenser (Labcyte, Sunnyvale, CA). H1-HeLa cells were harvested and suspended in DMEM (supplemented with 2% FBS and 1× Penicillin-Streptomycin-L-Glutamine) and seeded to the pre-spotted assay plates at 5,000 cells per well in 30 μL. HRV1B, HRV14, and HRV16 was diluted in DMEM (supplemented with 2% FBS and 1× Penicillin-Streptomycin-L-Glutamine) at 97.1 million Infectious Units (IU) per mL, 151 million IU per mL and 221 million IU per mL respectively. 10 μL of virus per well was added to the assay plates containing cells and compounds, for an MOI of 0.5, 1.0, and 0.25 respectively. The assay plates were incubated for 4 days at 37° C. and 5% CO2. At the end of incubation, Celltiter-Glo (Promega, Madison, WI, Cat #G7573) was prepared. The assay plates and Celltiter-Glo reagent were equilibrated to room temperature for at least 15 minutes. 40 μL per well of Celltiter-Glo reagent was added and the plates were incubated at room temperature for 15 minutes before reading the luminescence signal on an EnVision multimode plate reader (Perkin Elmer, Waltham, MA). Rupintrivir was used as positive control and DMSO was used as negative control. Values were normalized to the positive and negative controls (as 0% and 100% replication, respectively) and data was fitted using non-linear regression analysis by Gilead's dose response tool. The EC50 value for each compound was defined as the concentration reducing viral replication by 50%.

[2] = RSV NHBE CC50 384 V2 (per Ex. U); conditions: human
[3] = tested on: Human Rhinovirus 14 (HRV14) in H1-HeLa cells; experiment: H1-HeLa HRV-CTG EC50, HRV14 (Example Z); conditions: Rhinovirus B, HRV14, 96 h, MOI 1.0, 4 days, Celltiter-Glo, read-out: HRV14 HELA EC50 (nM) (per Ex. Z)
Description: as §1, §2, §3

[4] = tested on: Human Rhinovirus 1B (HRV1B) in H1-HeLa cells; experiment: H1-HeLa HRV-CTG EC50, HRV1B (Example Z); conditions: Rhinovirus A, 96 h, MOI 0.5, 4 days, Celltiter-Glo, read-out: HRV 1B HELA EC50 (nM) (per Ex. Z)
Description: as §1, §2, §3

[5] = RSV HEP2-CC50-384-V2 (per Ex. V); conditions: human
[6] = tested on: Respiratory syncytial virus recombinant with luciferase (RSV-Luc5) in NHBE cells; experiment: NHBE RSV-Luc5 384-well assay (EC50 RSVFLUC NHBE-384, Example U); conditions: human respiratory syncytial virus, 72 h, read-out: RSV FLuc NHBE 384 EC50 (v2) (nM) (per Ex. U)
Experimental: Normal Human Bronchial Epithelial (NHBE) cells were purchased from Lonza (Walkersville, MD Cat #CC2540) and maintained in BEGM Bronchial Epithelial Cell (Growth Medium BulletKit (Lonza CC-3170).
Cells were thawed, expanded, and were used for experiments at passage 2. Respiratory syncytial virus recombinant with luciferase (RSV-Luc5) (≥1×10^7 Infectious Units/ml (IU/ml) determined by TCID50) was purchased from Microbiologics (Saint Cloud, MN). Viral replication was determined in NHBE cells in the following manner.
as §2, with “Compounds” for “Test molecules”
The test compounds were spotted to 384-well assay plates (Greiner, Monroe, NC, Cat #781091) at 200 nL per well. NHBE cells were harvested and suspended in BEGM Bronchial Epithelial Cell Growth Medium BulletKit and seeded to the pre-spotted assay plates at 5,000 cells per well in 30 μL. RSV-Luc5 virus was diluted in BEGM Bronchial Epithelial Cell Growth Medium BulletKit at 500,000 Infectious Units (IU) per mL and 10 μL per well was added to the assay plates containing cells and compounds, for an MOI of 1. The assay plates were incubated for 3 days at 37° C. and 5% CO2. At the end of incubation, One-Glo reagent (Promega, Madison, WI, Cat #E6120) was prepared. The assay plates and One-Glo reagent were equilibrated to room temperature for at least 15 minutes. 40 μL per well of One-Glo reagent was added and the plates were incubated at room temperature for 15 minutes before reading the luminescence signal on an EnVision multimode plate reader (Perkin Elmer, Waltham, MA). Remdesivir was used as positive control and DMSO was used as negative control. Values were normalized to the positive and negative controls (as 0% and 100% replication, respectively) and data was fitted using non-linear regression analysis by Gilead's dose response tool. The EC50 value for each compound was defined as the concentration reducing the viral replication by 50%.

Work on `CCCCCCCCCCCCCCCCC[C@@H](COP(=O)(O)OC[C@@]1(C#N)O[C@@H](c2ccc3c(N)ncnn23)[C@H](O)[C@@H]1O)OCc1cc(F)cc(C#N)c1` [Compound 74, ((2R,3S,4R)-5-(4-aminopyrrolo[2,1-f][1,2,4]triazin-7-yl)-2-cyano-3,4-dihydroxytetrahydrofuran-2-yl)methyl ((S)-2-((3-cyano-5-fluorobenzyl)oxy)nonadecyl) hydrogen phosphate] yielded an EC50 [1] of 49 nM, a CC50 at 3 days [2] of 1540 nM and an EC50 [3] of 67 nM. For the same compound, the EC50 [4] was 24 nM, the CC50 at 3 days [5] was 28000 nM and the EC50 [6] was 85 nM.

`CCCCCCCCCCCCCCCCCCOC[C@@H](COP(=O)(O)OC[C@@]1(C#N)O[C@@H](c2ccc3c(N)ncnn23)[C@H](O)[C@@H]1O)Oc1ccc(C#N)nc1` [Compound 72, ((2R,3S,4R,5S)-5-(4-aminopyrrolo[2,1-f][1,2,4]triazin-7-yl)-2-cyano-3,4-dihydroxytetrahydrofuran-2-yl)methyl ((S)-2-((6-cyanopyridin-3-yl)oxy)-3-(octadecyloxy)propyl) hydrogen phosphate] gave an EC50 [1] of 3 nM, a CC50 at 3 days [2] of 1610 nM and an EC50 [3] of 3 nM. The EC50 [4] was 3 nM, the CC50 at 3 days [5] was over 49900 nM and the EC50 [6] was 4 nM.

With `CCCCCCCCCCCCCCOC[C@H](COP(=O)(O)OC[C@@]1(C#N)O[C@@H](c2ccc3c(N)ncnn23)[C@H](O)[C@@H]1O)Oc1cc(C#N)ccn1` [Compound 69, ((2R,3S,4R)-5-(4-aminopyrrolo[2,1-f][1,2,4]triazin-7-yl)-2-cyano-3,4-dihydroxytetrahydrofuran-2-yl)methyl ((R)-2-((4-cyanopyridin-2-yl)oxy)-3-(tetradecyloxy)propyl) hydrogen phosphate] the EC50 [1] was 109 nM, the CC50 at 3 days [2] was 3290 nM and the EC50 [3] was 106 nM. The EC50 [4] was 116 nM, the CC50 at 3 days [5] was over 50000 nM and the EC50 [6] was 32 nM.

Compound `CCCCCCCCCCCCCCCCCCC[C@H](COP(=O)(O)OC[C@@]1(C#N)O[C@@H](c2ccc3c(N)ncnn23)[C@H](O)[C@@H]1O)Oc1ccc(C#N)c(OC(C)C)c1` [Compound 38, ((2R,3S,4R,5S)-5-(4-aminopyrrolo[2,1-f][1,2,4]triazin-7-yl)-2-cyano-3,4-dihydroxytetrahydrofuran-2-yl)methyl ((R)-2-(4-cyano-3-isopropoxyphenoxy)henicosyl) hydrogen phosphate] has an EC50 [1] of 29 nM, a CC50 at 3 days [2] of 7990 nM and an EC50 [3] of 28 nM. For the same compound, the EC50 [4] was 12 nM, the CC50 at 3 days [5] was 35300 nM and the EC50 [6] was 25 nM.

Compound `CCCCCCCCCCCCCCCCCCC[C@H](COP(=O)(O)OC[C@@]1(C#N)O[C@@H](c2ccc3c(N)ncnn23)[C@H](O)[C@@H]1O)OCc1cc(Cl)cc(C#N)c1` [Compound 82, ((2R,3S,4R,5S)-5-(4-aminopyrrolo[2,1-f][1,2,4]triazin-7-yl)-2-cyano-3,4-dihydroxytetrahydrofuran-2-yl)methyl ((R)-2-((3-chloro-5-cyanobenzyl)oxy)henicosyl) hydrogen phosphate] has a CC50 at 3 days [2] of 6120 nM, a CC50 at 3 days [5] of 29000 nM and an EC50 [6] of 147 nM.

In the case of `CCCCCCCCCCCCCCCCOC[C@@H](COP(=O)(O)OC[C@@]1(C#N)O[C@@H](c2ccc3c(N)ncnn23)[C@H](O)[C@@H]1O)OCc1cc(F)cc(C#N)c1` [Compound 88, ((2R,3S,4R,5S)-5-(4-aminopyrrolo[2,1-f][1,2,4]triazin-7-yl)-2-cyano-3,4-dihydroxytetrahydrofuran-2-yl)methyl ((S)-2-((3-cyano-5-fluorobenzyl)oxy)-3-(hexadecyloxy)propyl) hydrogen phosphate], the CC50 at 3 days [2] is reported as 7530 nM, the CC50 at 3 days [5] is reported as 36600 nM and the EC50 [6] is reported as 38 nM.

`CCCCCCCCCCCCCCCCCC[C@H](COP(=O)(O)OC[C@@]1(C#N)O[C@@H](c2ccc3c(N)ncnn23)[C@H](O)[C@@H]1O)OCc1cc(F)cc(C#N)c1` [Compound 84, ((2R,3S,4R,5S)-5-(4-aminopyrrolo[2,1-f][1,2,4]triazin-7-yl)-2-cyano-3,4-dihydroxytetrahydrofuran-2-yl)methyl ((R)-2-((3-cyano-5-fluorobenzyl)oxy)icosyl) hydrogen phosphate] showed a CC50 at 3 days [2] of 24500 nM, a CC50 at 3 days [5] of over 50000 nM and an EC50 [6] of 9 nM.

With `CCCCCCCCCCCCCCCCC[C@H](COP(=O)(O)OC[C@@]1(C#N)O[C@@H](c2ccc3c(N)ncnn23)[C@H](O)[C@@H]1O)OCc1cc(Cl)cc(C#N)c1` [Compound 76, ((2R,3S,4R)-5-(4-aminopyrrolo[2,1-f][1,2,4]triazin-7-yl)-2-cyano-3,4-dihydroxytetrahydrofuran-2-yl)methyl ((R)-2-((3-chloro-5-cyanobenzyl)oxy)nonadecyl) hydrogen phosphate] the CC50 at 3 days [2] was 3550 nM, the CC50 at 3 days [5] was 33700 nM and the EC50 [6] was 113 nM.

With `CCCCCCCCCCCCCCCCCC[C@H](COP(=O)(O)OC[C@@]1(C#N)O[C@@H](c2ccc3c(N)ncnn23)[C@H](O)[C@@H]1O)OCc1cc(Cl)cc(C#N)c1` [Compound 81, ((2R,3S,4R,5S)-5-(4-aminopyrrolo[2,1-f][1,2,4]triazin-7-yl)-2-cyano-3,4-dihydroxytetrahydrofuran-2-yl)methyl ((R)-2-((3-chloro-5-cyanobenzyl)oxy)icosyl) hydrogen phosphate] the CC50 at 3 days [2] was 2480 nM, the CC50 at 3 days [5] was 23000 nM and the EC50 [6] was 83 nM.

For `CCCCCCCCCCCCCCCCCCOC[C@H](COP(=O)(O)OC[C@@]1(C#N)O[C@@H](c2ccc3c(N)ncnn23)[C@H](O)[C@@H]1O)OCc1ccc(C#N)nc1` [Compound 19, ((2R,3S,4R,5S)-5-(4-aminopyrrolo[2,1-f][1,2,4]triazin-7-yl)-2-cyano-3,4-dihydroxytetrahydrofuran-2-yl)methyl ((R)-2-((6-cyanopyridin-3-yl)methoxy)-3-(octadecyloxy)propyl) hydrogen phosphate], the CC50 at 3 days [5] was 46400 nM.
